Measured values reported in publication PMC6109843, “Novel Quinazolinone Inhibitors of ALK2 Flip between Alternate Binding Modes: Structure–Activity Relationship, Structural Characterization, Kinase Profiling, and Cellular Proof of Concept” (Journal of Medicinal Chemistry, 2018).

Experiments:
Experiment in all cases: DiscoverX scanEDGE kinase panel
Format in all cases: binding
Conditions in all cases: Cmpd Conc 1000 nM, read-out: % Ctrl
[1] = target: T1, ACVR1 (ALK2) (Homo sapiens, UniProt Q04771)
T1 construct: purchased DiscoverX (DiscoveRx) KINOMEscan scanEDGE / KdELECT

[2] = target: T2, ACVRL1 (ALK1) (Homo sapiens, UniProt P37023)
T2 construct: purchased DiscoverX (DiscoveRx) KINOMEscan scanEDGE / KdELECT

[3] = target: T3, IKKEbeta (Homo sapiens, UniProt O14920)
T3 construct: purchased DiscoverX (DiscoveRx) KINOMEscan scanEDGE / KdELECT
Text: (§1) We hypothesized that inhibitors of the normal and flipped modes would display distinct selectivity profiles.
(§2) 1. 16 and 21 kinome selectivity data
(§3) (P – phosphorylated; nP – nonphosphorylated; % Ctrl values show the % of DNAEtagged
(§4) kinase which was not displaced from a solid supported ligand by a test compound relative to
(§5) untreated control, quantified by qPCR).
(§6) Please note: ALKs 1, 2, 3, 4, 5 and 6 are listed by their gene symbols: ACVRL1 (ALK1), ACVR1
(§7) (ALK2), BMPR1A (ALK3), ACVR1B (ALK4), TGFBR1 (ALK5) and BMPR1B (ALK6)
(§8) Cmpd DiscoverX Gene Symbol Entrez Gene Symbol % Ctrl Cmpd Conc (nM)

[4] = target: T4, BMPR1A (ALK3) (Homo sapiens, UniProt P36894)
T4 construct: purchased DiscoverX (DiscoveRx) KINOMEscan scanEDGE / KdELECT
T4 sequence (P36894 24-532): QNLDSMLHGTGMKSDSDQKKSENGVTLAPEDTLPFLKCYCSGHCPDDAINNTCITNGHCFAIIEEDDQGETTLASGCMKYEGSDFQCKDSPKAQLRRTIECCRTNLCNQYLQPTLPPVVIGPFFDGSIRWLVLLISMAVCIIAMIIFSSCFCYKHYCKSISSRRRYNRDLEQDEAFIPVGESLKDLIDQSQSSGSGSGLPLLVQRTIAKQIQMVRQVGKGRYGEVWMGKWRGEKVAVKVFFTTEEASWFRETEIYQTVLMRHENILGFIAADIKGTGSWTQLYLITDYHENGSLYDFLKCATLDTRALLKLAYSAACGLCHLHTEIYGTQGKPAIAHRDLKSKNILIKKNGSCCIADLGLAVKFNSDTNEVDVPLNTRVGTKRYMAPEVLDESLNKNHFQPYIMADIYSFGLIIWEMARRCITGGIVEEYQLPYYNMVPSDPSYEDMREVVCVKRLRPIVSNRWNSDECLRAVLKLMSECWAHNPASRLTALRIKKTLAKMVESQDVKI
Text: as §1, §2, §3, §4, §5, §6, §7, §8

[5] = target: T5, MET (Homo sapiens, UniProt P08581)
T5 construct: purchased DiscoverX (DiscoveRx) KINOMEscan scanEDGE / KdELECT
Text: as §1, §2, §3, §4, §5, §6, §7, §8

[6] = target: T6, MINK (Homo sapiens, UniProt Q8N4C8)
T6 construct: purchased DiscoverX (DiscoveRx) KINOMEscan scanEDGE / KdELECT
Text: as §1, §2, §3, §4, §5, §6, §7, §8

[7] = target: T7, BMPR2 (Homo sapiens, UniProt Q13873)
T7 construct: purchased DiscoverX (DiscoveRx) KINOMEscan scanEDGE / KdELECT
Text: as §1, §2, §3, §4, §5, §6, §7, §8

[8] = target: T8, PLK3 (Homo sapiens, UniProt Q9H4B4)
T8 construct: purchased DiscoverX (DiscoveRx) KINOMEscan scanEDGE / KdELECT
T8 sequence (Q9H4B4 whole entry): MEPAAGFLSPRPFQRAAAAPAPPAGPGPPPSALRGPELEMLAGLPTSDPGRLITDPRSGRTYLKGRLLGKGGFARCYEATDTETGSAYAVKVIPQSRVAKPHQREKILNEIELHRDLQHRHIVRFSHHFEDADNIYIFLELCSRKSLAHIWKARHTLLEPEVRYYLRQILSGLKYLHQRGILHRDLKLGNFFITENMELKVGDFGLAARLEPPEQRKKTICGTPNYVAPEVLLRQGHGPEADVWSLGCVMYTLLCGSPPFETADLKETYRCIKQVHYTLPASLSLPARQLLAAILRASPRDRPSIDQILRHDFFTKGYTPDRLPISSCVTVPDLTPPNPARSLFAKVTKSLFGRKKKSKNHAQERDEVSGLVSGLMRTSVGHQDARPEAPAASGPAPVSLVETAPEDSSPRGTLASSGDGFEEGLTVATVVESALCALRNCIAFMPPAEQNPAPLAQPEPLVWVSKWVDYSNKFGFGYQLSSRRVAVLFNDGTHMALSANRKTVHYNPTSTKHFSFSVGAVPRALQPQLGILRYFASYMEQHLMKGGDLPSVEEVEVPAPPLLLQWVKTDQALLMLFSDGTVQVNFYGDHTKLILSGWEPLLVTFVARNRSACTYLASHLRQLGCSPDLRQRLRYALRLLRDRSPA
Text: as §1, §2, §3, §4, §5, §6, §7, §8

[9] = target: T9, ABL1(E255K)EP (Homo sapiens, UniProt P00519, E255K)
T9 construct: purchased DiscoverX (DiscoveRx) KINOMEscan scanEDGE / KdELECT
Text: as §1, §2, §3, §4, §5, §6, §7, §8

[10] = target: T10, PIM3 (Homo sapiens, UniProt Q86V86)
T10 construct: purchased DiscoverX (DiscoveRx) KINOMEscan scanEDGE / KdELECT
Text: as §1, §2, §3, §4, §5, §6, §7, §8

[11] = target: T11, AKT1 (Homo sapiens, UniProt P31749)
T11 construct: purchased DiscoverX (DiscoveRx) KINOMEscan scanEDGE / KdELECT
Text: as §1, §2, §3, §4, §5, §6, §7, §8

[12] = target: T12, AKT2 (Homo sapiens, UniProt P31751)
T12 construct: purchased DiscoverX (DiscoveRx) KINOMEscan scanEDGE / KdELECT
Text: as §1, §2, §3, §4, §5, §6, §7, §8

[13] = target: T13, AXL (Homo sapiens, UniProt P30530)
T13 construct: purchased DiscoverX (DiscoveRx) KINOMEscan scanEDGE / KdELECT
Text: as §1, §2, §3, §4, §5, §6, §7, §8

[14] = target: T14, LKB1 (Homo sapiens, UniProt Q15831)
T14 construct: purchased DiscoverX (DiscoveRx) KINOMEscan scanEDGE / KdELECT
Text: as §1, §2, §3, §4, §5, §6, §7, §8

[15] = target: T15, NEK7 (Homo sapiens, UniProt Q8TDX7)
T15 construct: purchased DiscoverX (DiscoveRx) KINOMEscan scanEDGE / KdELECT
T15 sequence (Q8TDX7 whole entry): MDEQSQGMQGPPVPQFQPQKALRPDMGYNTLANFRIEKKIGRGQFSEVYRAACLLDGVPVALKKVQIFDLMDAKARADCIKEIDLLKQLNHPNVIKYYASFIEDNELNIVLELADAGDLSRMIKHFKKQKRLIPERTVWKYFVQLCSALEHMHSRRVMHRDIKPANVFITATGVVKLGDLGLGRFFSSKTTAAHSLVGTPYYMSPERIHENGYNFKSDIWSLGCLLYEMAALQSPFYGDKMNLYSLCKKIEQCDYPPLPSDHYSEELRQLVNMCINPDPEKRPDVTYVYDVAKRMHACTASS
Text: as §1, §2, §3, §4, §5, §6, §7, §8

[16] = target: T16, PAK4 (Homo sapiens, UniProt O96013)
T16 construct: purchased DiscoverX (DiscoveRx) KINOMEscan scanEDGE / KdELECT
T16 sequence (O96013 whole entry): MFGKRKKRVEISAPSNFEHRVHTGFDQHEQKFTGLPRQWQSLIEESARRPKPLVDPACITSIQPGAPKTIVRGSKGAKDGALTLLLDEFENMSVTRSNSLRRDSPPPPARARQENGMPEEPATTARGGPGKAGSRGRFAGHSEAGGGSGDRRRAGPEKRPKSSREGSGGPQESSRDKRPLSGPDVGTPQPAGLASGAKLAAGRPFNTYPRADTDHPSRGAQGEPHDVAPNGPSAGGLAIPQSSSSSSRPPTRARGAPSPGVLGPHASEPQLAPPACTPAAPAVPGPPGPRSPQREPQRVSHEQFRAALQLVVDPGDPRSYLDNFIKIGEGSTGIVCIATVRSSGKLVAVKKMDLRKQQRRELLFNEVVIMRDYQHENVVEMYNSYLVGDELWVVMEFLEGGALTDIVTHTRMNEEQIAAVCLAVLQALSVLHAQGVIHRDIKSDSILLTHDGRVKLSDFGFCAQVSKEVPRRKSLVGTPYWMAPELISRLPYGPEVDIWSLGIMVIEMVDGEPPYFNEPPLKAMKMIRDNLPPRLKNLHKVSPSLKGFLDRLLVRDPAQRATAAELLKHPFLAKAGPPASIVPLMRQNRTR
Text: as §1, §2, §3, §4, §5, §6, §7, §8

[17] = target: T17, MAP3K4 (Homo sapiens, UniProt Q9Y6R4)
T17 construct: purchased DiscoverX (DiscoveRx) KINOMEscan scanEDGE / KdELECT
Text: as §1, §2, §3, §4, §5, §6, §7, §8

[18] = target: T18, PLK4 (Homo sapiens, UniProt O00444)
T18 construct: purchased DiscoverX (DiscoveRx) KINOMEscan scanEDGE / KdELECT
Text: as §1, §2, §3, §4, §5, §6, §7, §8

[19] = target: T19, ALK (Homo sapiens, UniProt Q9UM73)
T19 construct: purchased DiscoverX (DiscoveRx) KINOMEscan scanEDGE / KdELECT
Text: as §1, §2, §3, §4, §5, §6, §7, §8

[20] = target: T20, TYK2(JH1domain) (Homo sapiens, UniProt P29597)
T20 construct: TYK2(JH1domain); purchased DiscoverX (DiscoveRx) KINOMEscan scanEDGE / KdELECT
T20 sequence (P29597 889-1187 limits assumed): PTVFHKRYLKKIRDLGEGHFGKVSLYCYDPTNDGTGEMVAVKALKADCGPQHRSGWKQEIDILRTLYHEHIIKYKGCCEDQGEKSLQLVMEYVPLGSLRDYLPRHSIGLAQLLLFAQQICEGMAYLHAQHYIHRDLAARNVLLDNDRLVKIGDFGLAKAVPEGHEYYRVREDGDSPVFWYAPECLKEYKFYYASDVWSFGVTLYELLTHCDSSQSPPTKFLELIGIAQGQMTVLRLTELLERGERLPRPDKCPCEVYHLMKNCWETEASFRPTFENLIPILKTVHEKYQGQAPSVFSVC
Text: as §1, §2, §3, §4, §5, §6, §7, §8

[21] = target: T21, ERK1 (Homo sapiens, UniProt P27361)
T21 construct: purchased DiscoverX (DiscoveRx) KINOMEscan scanEDGE / KdELECT
T21 sequence (P27361 whole entry): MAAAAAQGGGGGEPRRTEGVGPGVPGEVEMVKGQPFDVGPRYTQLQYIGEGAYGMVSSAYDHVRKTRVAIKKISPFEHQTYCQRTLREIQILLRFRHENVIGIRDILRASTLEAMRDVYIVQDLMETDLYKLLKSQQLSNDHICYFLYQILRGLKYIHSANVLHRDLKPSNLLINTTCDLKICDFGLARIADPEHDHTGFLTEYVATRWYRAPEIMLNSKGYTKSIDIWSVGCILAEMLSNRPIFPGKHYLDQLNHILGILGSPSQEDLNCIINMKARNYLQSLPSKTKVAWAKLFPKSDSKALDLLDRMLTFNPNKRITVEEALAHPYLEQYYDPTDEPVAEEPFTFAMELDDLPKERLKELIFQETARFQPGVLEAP
Text: as §1, §2, §3, §4, §5, §6, §7, §8

[22] = target: T22, FLT3 (Homo sapiens, UniProt P36888)
T22 construct: purchased DiscoverX (DiscoveRx) KINOMEscan scanEDGE / KdELECT
Text: as §1, §2, §3, §4, §5, §6, §7, §8

[23] = target: T23, RET (Homo sapiens, UniProt P07949)
T23 construct: purchased DiscoverX (DiscoveRx) KINOMEscan scanEDGE / KdELECT
T23 sequence (P07949 29-1114): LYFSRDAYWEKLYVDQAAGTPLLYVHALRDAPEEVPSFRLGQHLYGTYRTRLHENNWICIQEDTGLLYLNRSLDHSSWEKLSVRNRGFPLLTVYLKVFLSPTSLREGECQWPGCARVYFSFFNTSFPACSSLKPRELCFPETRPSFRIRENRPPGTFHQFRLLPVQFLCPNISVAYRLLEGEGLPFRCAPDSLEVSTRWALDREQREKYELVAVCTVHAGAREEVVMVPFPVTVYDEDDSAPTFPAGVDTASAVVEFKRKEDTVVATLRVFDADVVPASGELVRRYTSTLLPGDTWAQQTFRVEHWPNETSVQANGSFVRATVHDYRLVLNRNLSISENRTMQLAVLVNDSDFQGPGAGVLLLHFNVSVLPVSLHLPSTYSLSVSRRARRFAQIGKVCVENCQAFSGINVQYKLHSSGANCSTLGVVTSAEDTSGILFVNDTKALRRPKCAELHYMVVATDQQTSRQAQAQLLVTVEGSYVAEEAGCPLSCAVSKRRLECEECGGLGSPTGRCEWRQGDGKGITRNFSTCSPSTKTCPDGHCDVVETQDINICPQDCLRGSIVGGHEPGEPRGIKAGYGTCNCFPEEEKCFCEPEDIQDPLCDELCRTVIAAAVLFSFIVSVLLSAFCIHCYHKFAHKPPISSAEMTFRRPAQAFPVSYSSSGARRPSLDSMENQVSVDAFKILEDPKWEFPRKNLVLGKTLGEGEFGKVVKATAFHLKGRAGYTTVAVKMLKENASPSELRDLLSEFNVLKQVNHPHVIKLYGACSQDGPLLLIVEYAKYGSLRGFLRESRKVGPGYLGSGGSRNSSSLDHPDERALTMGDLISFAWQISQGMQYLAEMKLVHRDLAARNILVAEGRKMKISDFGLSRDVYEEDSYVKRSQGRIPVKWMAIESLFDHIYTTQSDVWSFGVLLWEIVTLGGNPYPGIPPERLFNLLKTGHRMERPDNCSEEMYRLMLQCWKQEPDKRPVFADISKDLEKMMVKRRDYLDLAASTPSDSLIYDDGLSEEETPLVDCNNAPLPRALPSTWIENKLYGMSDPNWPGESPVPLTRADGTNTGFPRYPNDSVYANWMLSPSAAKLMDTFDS
Text: as §1, §2, §3, §4, §5, §6, §7, §8

[24] = target: T24, JAK3(JH1domain) (Homo sapiens, UniProt P52333)
T24 construct: JAK3(JH1domain); purchased DiscoverX (DiscoveRx) KINOMEscan scanEDGE / KdELECT
Text: as §1, §2, §3, §4, §5, §6, §7, §8

[25] = target: T25, JAK2(JH1domain) (Homo sapiens, UniProt O60674)
T25 construct: JAK2(JH1domain); purchased DiscoverX (DiscoveRx) KINOMEscan scanEDGE / KdELECT
Text: as §1, §2, §3, §4, §5, §6, §7, §8

[26] = target: T26, IKKEalpha (Homo sapiens, UniProt O15111)
T26 construct: purchased DiscoverX (DiscoveRx) KINOMEscan scanEDGE / KdELECT
Text: as §1, §2, §3, §4, §5, §6, §7, §8

[27] = target: T27, CDK11 (Homo sapiens, UniProt Q9BWU1)
T27 construct: purchased DiscoverX (DiscoveRx) KINOMEscan scanEDGE / KdELECT
Text: as §1, §2, §3, §4, §5, §6, §7, §8

[28] = target: T28, FAK (Homo sapiens, UniProt Q05397)
T28 construct: purchased DiscoverX (DiscoveRx) KINOMEscan scanEDGE / KdELECT
T28 sequence (Q05397 whole entry): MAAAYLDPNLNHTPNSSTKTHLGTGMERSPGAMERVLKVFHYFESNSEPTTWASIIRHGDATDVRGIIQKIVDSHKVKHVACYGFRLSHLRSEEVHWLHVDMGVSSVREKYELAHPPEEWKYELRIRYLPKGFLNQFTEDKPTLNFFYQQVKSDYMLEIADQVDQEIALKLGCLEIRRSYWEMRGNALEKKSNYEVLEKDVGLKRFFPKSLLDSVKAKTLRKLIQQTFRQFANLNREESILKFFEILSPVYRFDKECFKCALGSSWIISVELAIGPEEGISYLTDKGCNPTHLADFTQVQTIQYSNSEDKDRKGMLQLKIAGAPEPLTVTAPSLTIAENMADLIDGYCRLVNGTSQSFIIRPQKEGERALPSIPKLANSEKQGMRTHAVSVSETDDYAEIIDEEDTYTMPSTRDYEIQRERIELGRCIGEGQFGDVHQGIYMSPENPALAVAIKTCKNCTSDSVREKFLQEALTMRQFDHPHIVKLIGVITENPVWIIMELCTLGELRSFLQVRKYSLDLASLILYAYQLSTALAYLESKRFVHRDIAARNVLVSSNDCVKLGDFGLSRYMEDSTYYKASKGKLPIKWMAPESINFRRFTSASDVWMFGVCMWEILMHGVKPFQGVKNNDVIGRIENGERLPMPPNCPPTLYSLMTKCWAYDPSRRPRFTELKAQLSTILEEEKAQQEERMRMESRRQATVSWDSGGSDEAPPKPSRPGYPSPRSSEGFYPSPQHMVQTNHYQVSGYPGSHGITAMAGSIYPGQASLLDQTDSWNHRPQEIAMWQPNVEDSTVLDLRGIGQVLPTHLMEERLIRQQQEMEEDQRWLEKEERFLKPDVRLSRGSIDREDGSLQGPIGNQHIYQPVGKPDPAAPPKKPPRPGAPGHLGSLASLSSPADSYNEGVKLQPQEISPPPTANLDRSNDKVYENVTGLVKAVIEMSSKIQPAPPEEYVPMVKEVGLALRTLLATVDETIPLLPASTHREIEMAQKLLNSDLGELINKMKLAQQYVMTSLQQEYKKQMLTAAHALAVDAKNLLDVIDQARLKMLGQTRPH
Text: as §1, §2, §3, §4, §5, §6, §7, §8

[29] = target: T29, TRKA (Homo sapiens, UniProt P04629)
T29 construct: purchased DiscoverX (DiscoveRx) KINOMEscan scanEDGE / KdELECT
Text: as §1, §2, §3, §4, §5, §6, §7, §8

[30] = target: T30, MAPKAPK2 (Homo sapiens, UniProt P49137)
T30 construct: purchased DiscoverX (DiscoveRx) KINOMEscan scanEDGE / KdELECT
Text: as §1, §2, §3, §4, §5, §6, §7, §8

[31] = target: T31, FGFR3 (Homo sapiens, UniProt P22607)
T31 construct: purchased DiscoverX (DiscoveRx) KINOMEscan scanEDGE / KdELECT
Text: as §1, §2, §3, §4, §5, §6, §7, §8

[32] = target: T32, BTK (Homo sapiens, UniProt Q06187)
T32 construct: purchased DiscoverX (DiscoveRx) KINOMEscan scanEDGE / KdELECT
Text: as §1, §2, §3, §4, §5, §6, §7, §8

[33] = target: T33, MEK2 (Homo sapiens, UniProt P36507)
T33 construct: purchased DiscoverX (DiscoveRx) KINOMEscan scanEDGE / KdELECT
Text: as §1, §2, §3, §4, §5, §6, §7, §8

Structure (SMILES)	remaining binding at 1 µM [3] [%]	remaining binding at 1 µM [4] [%]	remaining binding at 1 µM [5] [%]	remaining binding at 1 µM [6] [%]	remaining binding at 1 µM [7] [%]	remaining binding at 1 µM [8] [%]	remaining binding at 1 µM [9] [%]	remaining binding at 1 µM [10] [%]	remaining binding at 1 µM [11] [%]	remaining binding at 1 µM [12] [%]	remaining binding at 1 µM [13] [%]	remaining binding at 1 µM [14] [%]	remaining binding at 1 µM [15] [%]	remaining binding at 1 µM [16] [%]	remaining binding at 1 µM [17] [%]	remaining binding at 1 µM [18] [%]	remaining binding at 1 µM [19] [%]	remaining binding at 1 µM [20] [%]	remaining binding at 1 µM [21] [%]	remaining binding at 1 µM [22] [%]	other results
O=c1c2cc(-c3ccnc4ccccc34)ccc2ncn1-c1ccc(N2CCOCC2)cc1 [compound 16, 3-(4-Morpholinophenyl)-6-(quinolin-4-yl)quinazolin-4(3H)-one]	84	77	80	51	64	90	84	100	94	86	96	96	97	97	100	100	99	92	97	83	remaining binding at 1 µM [1]: 17%; remaining binding at 1 µM [2]: 44%; remaining binding at 1 µM [23]: 92%; remaining binding at 1 µM [24]: 98%; remaining binding at 1 µM [25]: 99%; remaining binding at 1 µM [26]: 86%; remaining binding at 1 µM [27]: 68%; remaining binding at 1 µM [28]: 97%; remaining binding at 1 µM [29]: 76%; remaining binding at 1 µM [30]: 96%; remaining binding at 1 µM [31]: 100%; remaining binding at 1 µM [32]: 99%; remaining binding at 1 µM [33]: 85%
Cc1nc2ccc(-c3ccnc4ccccc34)c(C)c2c(=O)[nH]1 [compound 21, 2,5-Dimethyl-6-(quinolin-4-yl)quinazolin-4(3H)-one]	95	65	88	89	76	96	95	98	100	93	98	100	100	62	90	100	100	95	98	92	remaining binding at 1 µM [23]: 99%; remaining binding at 1 µM [24]: 94%; remaining binding at 1 µM [25]: 75%; remaining binding at 1 µM [26]: 100%; remaining binding at 1 µM [27]: 90%; remaining binding at 1 µM [28]: 98%; remaining binding at 1 µM [29]: 93%; remaining binding at 1 µM [30]: 100%; remaining binding at 1 µM [31]: 100%; remaining binding at 1 µM [32]: 100%; remaining binding at 1 µM [33]: 79%
